What all share (format): functional, cell membranes, Membrane vesicle
Series [1] has as its target T1, Multidrug resistance-associated protein 1 (Homo sapiens, UniProt P33527). Kind of series: TP_TRANSPORTER: uptake in membrane vesicles from MRP1-expressing Sf9 cells.
In series [2] the target is T2, ATP-binding cassette sub-family C member 2 (Homo sapiens, UniProt Q92887). Kind of series: TP_TRANSPORTER: uptake in membrane vesicles from MRP2-expressing Sf9 cells.
Series [3] concerns the target T2, ATP-binding cassette sub-family C member 2. Put plainly: TP_TRANSPORTER: inhibition of NEM-GS uptake (NEM-GS: 4 uM, Furosemide: 5000 uM) in membrane vesicles from MRP2-expressing Sf9 cells. Particulars: sf9, 5000 µM.
Series [4] has the same target. Kind of series: TP_TRANSPORTER: inhibition of NEM-GS uptake (NEM-GS: 4 uM, Probenecid: <1000 uM) in membrane vesicles from MRP2-expressing Sf9 cells.
Series [5] concerns the target T1, Multidrug resistance-associated protein 1. Kind of series: TP_TRANSPORTER: inhibition of NEM-GS uptake (NEM-GS: 4 uM, Probenecid: <1000 uM) in membrane vesicles from MRP1-expressing Sf9 cells.

T2 sequence (Q92887 whole entry): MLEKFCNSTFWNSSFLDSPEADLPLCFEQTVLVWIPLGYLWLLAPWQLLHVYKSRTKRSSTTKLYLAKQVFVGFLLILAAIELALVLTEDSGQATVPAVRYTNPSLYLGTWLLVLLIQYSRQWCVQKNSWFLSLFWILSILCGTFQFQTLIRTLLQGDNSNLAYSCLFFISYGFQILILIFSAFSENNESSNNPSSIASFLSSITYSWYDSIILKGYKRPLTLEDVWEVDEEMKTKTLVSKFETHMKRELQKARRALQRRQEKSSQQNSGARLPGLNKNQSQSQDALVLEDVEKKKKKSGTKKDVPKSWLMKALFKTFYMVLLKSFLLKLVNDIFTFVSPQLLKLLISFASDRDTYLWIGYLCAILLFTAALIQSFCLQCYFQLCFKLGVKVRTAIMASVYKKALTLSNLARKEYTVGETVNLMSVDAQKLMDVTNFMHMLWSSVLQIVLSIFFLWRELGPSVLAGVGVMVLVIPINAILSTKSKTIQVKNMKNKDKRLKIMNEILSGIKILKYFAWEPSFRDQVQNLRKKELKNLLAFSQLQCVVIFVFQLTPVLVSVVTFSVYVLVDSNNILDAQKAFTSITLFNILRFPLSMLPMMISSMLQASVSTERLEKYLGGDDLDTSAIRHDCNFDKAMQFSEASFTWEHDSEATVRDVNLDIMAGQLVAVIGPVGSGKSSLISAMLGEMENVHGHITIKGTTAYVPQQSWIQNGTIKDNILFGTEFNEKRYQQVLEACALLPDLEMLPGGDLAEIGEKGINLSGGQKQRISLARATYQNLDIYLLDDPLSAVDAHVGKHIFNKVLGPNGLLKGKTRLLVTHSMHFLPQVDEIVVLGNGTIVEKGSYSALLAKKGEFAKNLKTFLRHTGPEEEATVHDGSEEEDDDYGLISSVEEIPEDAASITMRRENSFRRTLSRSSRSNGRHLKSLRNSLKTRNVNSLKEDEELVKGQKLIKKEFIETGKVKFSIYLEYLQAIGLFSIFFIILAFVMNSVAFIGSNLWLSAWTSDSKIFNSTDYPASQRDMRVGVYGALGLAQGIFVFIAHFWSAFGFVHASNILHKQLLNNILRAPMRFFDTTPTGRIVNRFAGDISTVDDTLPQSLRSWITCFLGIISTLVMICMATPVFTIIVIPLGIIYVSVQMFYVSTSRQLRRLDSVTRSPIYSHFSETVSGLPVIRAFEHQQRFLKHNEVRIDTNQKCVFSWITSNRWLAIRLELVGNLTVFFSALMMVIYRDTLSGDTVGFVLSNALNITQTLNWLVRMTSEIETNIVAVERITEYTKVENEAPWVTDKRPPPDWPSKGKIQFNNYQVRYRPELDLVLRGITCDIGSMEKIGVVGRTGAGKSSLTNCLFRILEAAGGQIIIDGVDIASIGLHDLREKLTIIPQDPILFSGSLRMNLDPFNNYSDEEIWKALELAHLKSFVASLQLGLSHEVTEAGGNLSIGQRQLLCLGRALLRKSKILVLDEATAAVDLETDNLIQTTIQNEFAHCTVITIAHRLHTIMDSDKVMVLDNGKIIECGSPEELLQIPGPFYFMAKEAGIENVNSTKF
T1 sequence (P33527 whole entry): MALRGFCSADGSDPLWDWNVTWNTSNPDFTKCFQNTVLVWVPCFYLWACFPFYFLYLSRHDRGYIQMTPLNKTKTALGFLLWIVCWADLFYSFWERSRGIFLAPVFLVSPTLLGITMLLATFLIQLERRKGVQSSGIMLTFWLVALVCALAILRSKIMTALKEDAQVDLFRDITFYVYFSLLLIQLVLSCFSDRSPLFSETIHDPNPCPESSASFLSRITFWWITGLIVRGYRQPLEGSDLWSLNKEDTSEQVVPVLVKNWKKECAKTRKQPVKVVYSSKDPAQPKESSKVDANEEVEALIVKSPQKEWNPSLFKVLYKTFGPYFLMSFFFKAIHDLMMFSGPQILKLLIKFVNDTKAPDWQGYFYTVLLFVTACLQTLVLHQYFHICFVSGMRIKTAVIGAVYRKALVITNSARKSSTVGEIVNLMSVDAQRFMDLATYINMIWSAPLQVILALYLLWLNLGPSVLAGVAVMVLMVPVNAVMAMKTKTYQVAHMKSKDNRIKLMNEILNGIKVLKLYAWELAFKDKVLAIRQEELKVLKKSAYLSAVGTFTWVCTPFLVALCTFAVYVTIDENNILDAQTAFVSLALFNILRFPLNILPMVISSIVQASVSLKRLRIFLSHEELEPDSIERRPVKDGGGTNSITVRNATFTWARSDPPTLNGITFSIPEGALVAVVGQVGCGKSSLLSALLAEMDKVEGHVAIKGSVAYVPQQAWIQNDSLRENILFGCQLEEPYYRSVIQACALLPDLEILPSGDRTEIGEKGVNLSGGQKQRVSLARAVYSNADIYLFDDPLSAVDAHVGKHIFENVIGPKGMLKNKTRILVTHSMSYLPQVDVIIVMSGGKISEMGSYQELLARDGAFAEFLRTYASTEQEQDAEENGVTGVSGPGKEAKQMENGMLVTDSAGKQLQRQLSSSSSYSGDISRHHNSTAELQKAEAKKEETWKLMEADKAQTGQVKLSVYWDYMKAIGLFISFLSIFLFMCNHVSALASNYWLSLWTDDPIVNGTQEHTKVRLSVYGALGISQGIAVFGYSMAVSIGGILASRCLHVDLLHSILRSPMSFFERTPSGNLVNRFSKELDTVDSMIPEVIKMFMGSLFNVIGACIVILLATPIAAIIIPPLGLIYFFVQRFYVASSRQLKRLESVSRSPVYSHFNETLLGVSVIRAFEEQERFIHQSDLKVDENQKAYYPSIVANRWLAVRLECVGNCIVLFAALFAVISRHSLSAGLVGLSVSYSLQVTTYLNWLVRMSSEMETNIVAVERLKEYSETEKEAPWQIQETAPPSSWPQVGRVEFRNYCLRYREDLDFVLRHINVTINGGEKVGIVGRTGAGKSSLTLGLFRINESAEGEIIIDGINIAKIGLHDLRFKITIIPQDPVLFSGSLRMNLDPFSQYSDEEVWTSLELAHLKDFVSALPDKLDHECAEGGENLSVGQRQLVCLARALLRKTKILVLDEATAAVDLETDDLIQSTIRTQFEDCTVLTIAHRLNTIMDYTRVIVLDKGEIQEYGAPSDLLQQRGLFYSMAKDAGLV

Consider `NC(CCC(=O)NC(CNCC(=O)O)CSCCN1C(=O)C=CC1=O)C(=O)O` (stereo not given), for which the K1/2 is 200 µM in series [1] and 2500 µM in series [2]. On to `NS(=O)(=O)c1cc(C(=O)O)c(NCc2ccco2)cc1Cl` [FUROSEMIDE], for which the Activity result in series [3] was “inhibitor [+]”. For the molecule `CCCN(CCC)S(=O)(=O)c1ccc(C(=O)O)cc1` [PROBENECID], the Activity entry in series [4] and in series [5] was “inhibitor [+]” each time.

The values above are taken from ChEMBL document CHEMBL2073948, “Interactions of the human multidrug resistance proteins MRP1 and MRP2 with organic anions” (Mol Pharmacol, 2000).
